Laboratory results taken from patent US11945822B2, “Pyrazolo-triazine and/or pyrazolo-pxrimidine derivatives as selective inhibitor of cyclin dependent kinase” (QURIENT CO., LTD., priority 2018, dated 2024).

How the values were obtained:
[1] = biological target: T1, CDK1/Cyclin B (Homo sapiens, UniProt P06493); experiment: Enzymatic assay for CDK1 (FRET based LANCE Ultra kinase assay); type: biochemical; conditions: read-out: CDK1 enzymatic activity (IC50 range)
T1 construct: purchased Invitrogen PR4768C
T1 sequence (P06493 whole entry): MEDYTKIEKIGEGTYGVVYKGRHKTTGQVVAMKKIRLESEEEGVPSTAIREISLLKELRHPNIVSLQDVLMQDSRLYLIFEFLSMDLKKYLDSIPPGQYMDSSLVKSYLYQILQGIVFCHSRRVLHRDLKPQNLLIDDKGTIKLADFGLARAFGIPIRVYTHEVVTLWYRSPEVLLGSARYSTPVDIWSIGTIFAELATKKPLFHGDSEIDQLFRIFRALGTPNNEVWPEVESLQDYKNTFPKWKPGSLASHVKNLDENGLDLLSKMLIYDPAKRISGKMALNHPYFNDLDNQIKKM
T1 sequence (P14635 whole entry partner): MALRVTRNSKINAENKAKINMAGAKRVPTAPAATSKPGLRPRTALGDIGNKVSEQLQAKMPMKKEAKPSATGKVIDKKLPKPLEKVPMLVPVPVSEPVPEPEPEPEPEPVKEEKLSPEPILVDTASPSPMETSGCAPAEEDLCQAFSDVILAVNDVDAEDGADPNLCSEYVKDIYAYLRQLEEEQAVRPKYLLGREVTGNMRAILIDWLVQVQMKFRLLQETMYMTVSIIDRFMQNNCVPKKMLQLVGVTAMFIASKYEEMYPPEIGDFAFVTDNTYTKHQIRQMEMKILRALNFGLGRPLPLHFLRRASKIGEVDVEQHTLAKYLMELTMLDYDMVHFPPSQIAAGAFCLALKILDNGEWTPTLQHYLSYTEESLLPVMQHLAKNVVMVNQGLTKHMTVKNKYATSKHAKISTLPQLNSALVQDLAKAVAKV
Description: (§1) Enzymatic Binding Assay Protocol for CDK1, CDK2, CDK5 and CDK7
(§2) Inhibition activity of the respective compound on CDK kinase under Km value of ATP was tested in FRET based The LANCE® Ultra kinase assay (Perkin Elmer), which uses a ULight™-labeled peptide substrate and an appropriate Europium-labeled anti-phospho-antibody. Test compounds were made with DMSO solutions, and then 4-fold serial dilutions for 8 doses were prepared using automated liquid handler (POD810, LABCYTE) and 80 nL/well of diluted compound solutions were added into the 384-well plates (Greiner, Cat #784075). And then 68 nM of ULight-MBP peptide (Perkin Elmer, Cat #TRF0109-M) and 5 ul/well of ATP (Sigma, Cat #A7699) were added to the plate. After 1 min centrifugation at 1000 rpm, Purified CDKs/Cyclin complex were added following concentrations respectively. 24 uM for CDK1/Cyclin B (Invitrogen, Cat #PR4768C), 22 uM for CDK2/Cyclin A (Invitrogen, Cat #PV6290), 10 uM for CDK5/p25 (Invitrogen, Cat #PR8543B) and […] for CDK7/Cyclin H/MNAT1 (Invitrogen, Cat #PR6749B) were added to the each corresponding plate for CDK1, CDK2, CDK5 and CDK7. Incubate at 23° C. for 60 min and then Eu-labeled anti-phospho-Myelin Basic Protein (PE, Cat #TRF0201-M) and EDTA (Invitrogen, Cat #15575038) mixture in Lance Detection Buffer (Perkin Elmer, Cat #CR97100) was added in each well. After additional incubation at 23° C. for 60 min, test articles were measured the fluorescence using Envision leader (Perkin Elmer, USA) [Laser as excitation light; […] as the first and the second emission filter]. Data was analyzed using XL Fit software.

[2] = biological target: T2, CDK2/Cyclin A (Homo sapiens, UniProt P24941); experiment: Enzymatic assay for CDK2 (FRET based LANCE Ultra kinase assay); type: biochemical; conditions: read-out: CDK2 enzymatic activity (IC50 range)
T2 construct: purchased Invitrogen PV6290
Description: as §1, §2

[3] = biological target: T3, CDK5/p25 (Homo sapiens, UniProt Q00535); experiment: Enzymatic assay for CDK5 (FRET based LANCE Ultra kinase assay); type: biochemical; conditions: read-out: CDK5 enzymatic activity (IC50 range)
T3 construct: purchased Invitrogen PR8543B
T3 sequence (Q00535 whole entry): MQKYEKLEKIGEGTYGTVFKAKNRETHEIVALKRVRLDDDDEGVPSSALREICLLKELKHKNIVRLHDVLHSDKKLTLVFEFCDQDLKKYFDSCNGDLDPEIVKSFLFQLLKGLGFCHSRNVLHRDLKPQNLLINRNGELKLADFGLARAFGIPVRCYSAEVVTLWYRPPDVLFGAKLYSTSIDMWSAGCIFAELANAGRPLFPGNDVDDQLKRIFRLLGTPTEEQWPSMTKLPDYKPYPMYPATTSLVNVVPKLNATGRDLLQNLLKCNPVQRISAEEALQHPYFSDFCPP
T3 sequence (Q15078 99-307 partner limits assumed): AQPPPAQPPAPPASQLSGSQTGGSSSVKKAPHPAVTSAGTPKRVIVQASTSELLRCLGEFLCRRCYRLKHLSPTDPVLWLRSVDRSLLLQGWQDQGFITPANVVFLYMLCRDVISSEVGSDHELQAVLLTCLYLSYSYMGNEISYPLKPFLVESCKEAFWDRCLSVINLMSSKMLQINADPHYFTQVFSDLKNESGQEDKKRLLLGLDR
Description: as §1, §2

[4] = biological target: T4, CDK7/Cyclin H/MNAT1 (Homo sapiens, UniProt P50613); experiment: Enzymatic assay for CDK7 (FRET based LANCE Ultra kinase assay); type: biochemical; conditions: for IC50: read-out: CDK7 enzymatic activity (IC50 range)
T4 construct: purchased Invitrogen PR6749B
T4 sequence (P50613 whole entry): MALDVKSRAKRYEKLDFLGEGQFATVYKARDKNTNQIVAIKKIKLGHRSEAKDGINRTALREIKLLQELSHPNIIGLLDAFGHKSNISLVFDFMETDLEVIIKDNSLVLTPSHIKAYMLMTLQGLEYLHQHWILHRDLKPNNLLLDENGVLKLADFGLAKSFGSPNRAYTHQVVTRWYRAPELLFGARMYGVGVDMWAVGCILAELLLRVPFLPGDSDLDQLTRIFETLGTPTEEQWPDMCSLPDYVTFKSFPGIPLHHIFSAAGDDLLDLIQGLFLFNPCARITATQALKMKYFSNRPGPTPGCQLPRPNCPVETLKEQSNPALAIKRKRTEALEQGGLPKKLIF
T4 sequence (P51946 whole entry partner): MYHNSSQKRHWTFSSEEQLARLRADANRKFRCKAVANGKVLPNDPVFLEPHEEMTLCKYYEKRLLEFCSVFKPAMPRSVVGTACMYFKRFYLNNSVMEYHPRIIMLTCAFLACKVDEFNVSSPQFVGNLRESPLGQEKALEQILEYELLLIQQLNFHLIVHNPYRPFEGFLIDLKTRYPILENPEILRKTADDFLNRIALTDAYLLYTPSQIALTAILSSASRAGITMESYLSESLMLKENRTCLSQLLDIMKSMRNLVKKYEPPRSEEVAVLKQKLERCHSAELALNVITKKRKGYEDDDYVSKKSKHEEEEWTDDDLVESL
T4 sequence (P51948 whole entry partner): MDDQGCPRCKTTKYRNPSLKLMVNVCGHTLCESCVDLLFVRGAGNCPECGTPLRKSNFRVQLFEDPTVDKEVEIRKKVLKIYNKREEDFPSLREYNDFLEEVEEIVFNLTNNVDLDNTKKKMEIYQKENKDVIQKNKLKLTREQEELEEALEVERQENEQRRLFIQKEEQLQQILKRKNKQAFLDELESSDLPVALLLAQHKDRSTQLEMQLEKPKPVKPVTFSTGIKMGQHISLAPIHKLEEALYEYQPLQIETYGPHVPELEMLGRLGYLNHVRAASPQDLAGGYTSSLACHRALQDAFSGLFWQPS
Description: as §1
Inhibition activity of the respective compound on CDK kinase under Km value of ATP was tested in FRET based The LANCE® Ultra kinase assay (Perkin Elmer), which uses a ULight™-labeled peptide substrate and an appropriate Europium-labeled anti-phospho-antibody. […] After 1 min centrifugation at 1000 rpm, Purified CDKs/Cyclin complex were added following concentrations respectively. […] Data was analyzed using XL Fit software.

[5] = system: HCT116; experiment: Cellular HCT116 viability assay (CellTiter-Glo, 72 hours); type: cell-based; conditions: Homo sapiens, HCT-116
Description: (§3) All cell lines were routinely tested for mycoplasma.
(§4) The effect of the CDK7 inhibitor to inhibit the growth of target cancer cells was evaluated through the 72 hours time period of viability assay. Briefly, the candidate cell line ware plated in 96 well plate at the following density of cells respectively. […] DMSO solvent without compound served as a control and final DMSO concentration less than 0.1%. After 72 hours of incubation at 37° C., 5% CO2 incubator, cells were analyzed for the viability using the CellTiter-Glo Luminescent Cell Viability Assay (Promega, Cat #G7570). All viability assays were performed in duplicate and Luminescence was read using an Envision (Perkin Elmer, USA). Data was analyzed using XLfit software.

[6] = system: MV4-11; experiment: Cellular MV4-11 viability assay (CellTiter-Glo, 72 hours); type: cell-based; conditions: Homo sapiens
Description: as §3, §4

[7] = system: H460; experiment: Cellular H460 viability assay (CellTiter-Glo, 72 hours); type: cell-based; conditions: Homo sapiens, NCI-H460
Description: as §3, §4

| IC50 [1] | IC50 [2] | IC50 [3] | IC50 [4] | IC50 [5] | IC50 [6] | IC50 [7] | SMILES | CDK1/CDK7: Selectivity of CDK7 inhibition over CDK1 inhibition [4] | CDK2/CDK7: Selectivity of CDK7 inhibition over CDK2 inhibition [4] | CDK5/CDK7: Selectivity of CDK7 inhibition over CDK5 inhibition [4] |
| --- | --- | --- | --- | --- | --- | --- | --- | --- | --- | --- |
| > 1000 nM | > 1000 nM | > 1000 nM | < 100 nM | – | 1000 to 10000 nM | – | CC(C)c1cnn2c(NCc3ccccc3-n3cccn3)nc(Nc3cccc(OC4CCNC4)c3)nc12 (racemic) [Compound 164] | B (B=less than 200 fold, but greater than 20 fold) | B (B=less than 200 fold, but greater than 20 fold) | B (B=less than 200 fold, but greater than 20 fold) |
| > 1000 nM | > 1000 nM | 100 to 1000 nM | < 100 nM | – | < 1000 nM | < 1000 nM | CC(C)c1cnn2c(NCc3ccccc3-n3cccn3)nc(-c3cccc(N4CCNCC4)c3)nc12 [Compound 167] | A (A=greater than 200 fold) | B (B=less than 200 fold, but greater than 20 fold) | B (B=less than 200 fold, but greater than 20 fold) |
| > 1000 nM | > 1000 nM | 100 to 1000 nM | < 100 nM | – | < 1000 nM | < 1000 nM | CC(C)c1cnn2c(NCc3ccccc3-n3cccn3)nc(-c3cccc(C4CCNCC4)c3)nc12 [Compound 165] | A (A=greater than 200 fold) | B (B=less than 200 fold, but greater than 20 fold) | B (B=less than 200 fold, but greater than 20 fold) |
| > 1000 nM | > 1000 nM | 100 to 1000 nM | < 100 nM | – | – | 1000 to 10000 nM | Cc1ccc(CNc2nc(N3CCC(N)CC3)nc3c(C(C)C)cnn23)cc1-n1cccn1 [Compound 65] | B (B=less than 200 fold, but greater than 20 fold) | B (B=less than 200 fold, but greater than 20 fold) | C (C=less than 20 fold) |
| > 1000 nM | > 1000 nM | > 1000 nM | 100 to 1000 nM | – | – | > 10000 nM | CC(C)c1cnn2c(NCc3ccccc3-n3cccn3)nc(C(=O)NC3CCNC3)nc12 (racemic) [Compound 8] | B (B=less than 200 fold, but greater than 20 fold) | B (B=less than 200 fold, but greater than 20 fold) | C (C=less than 20 fold) |

Second part, the molecule before the results:

| SMILES | IC50 [1] | IC50 [2] | IC50 [3] | IC50 [4] | IC50 [5] | IC50 [6] | IC50 [7] | CDK1/CDK7: Selectivity of CDK7 inhibition over CDK1 inhibition [4] | CDK2/CDK7: Selectivity of CDK7 inhibition over CDK2 inhibition [4] | CDK5/CDK7: Selectivity of CDK7 inhibition over CDK5 inhibition [4] |
| --- | --- | --- | --- | --- | --- | --- | --- | --- | --- | --- |
| CC(C)c1cnn2c(NCc3ccccc3-n3cc4cc(O)ccc4n3)nc(N3CCC(N)CC3)nc12 [Compound 159] | > 1000 nM | 100 to 1000 nM | 100 to 1000 nM | < 100 nM | < 1000 nM | < 1000 nM | – | A (A=greater than 200 fold) | B (B=less than 200 fold, but greater than 20 fold) | B (B=less than 200 fold, but greater than 20 fold) |
| CC(C)c1cnn2c(NCc3ccccc3-c3ccc4ccccc4n3)nc(NCC3(O)CCNCC3)nc12 [Compound 212] | > 1000 nM | > 1000 nM | > 1000 nM | < 100 nM | 1000 to 10000 nM | 1000 to 10000 nM | 1000 to 10000 nM | A (A=greater than 200 fold) | B (B=less than 200 fold, but greater than 20 fold) | B (B=less than 200 fold, but greater than 20 fold) |
| CC(C)c1cnn2c(NCc3ccccc3-n3cc4cc(NS(C)(=O)=O)ccc4n3)nc(N3CCC(N)CC3)nc12 [Compound 158] | 100 to 1000 nM | 100 to 1000 nM | < 100 nM | < 100 nM | < 1000 nM | < 1000 nM | – | B (B=less than 200 fold, but greater than 20 fold) | B (B=less than 200 fold, but greater than 20 fold) | B (B=less than 200 fold, but greater than 20 fold) |
| CC(C)c1cnn2c(NCc3cccc4ccncc34)nc(N3CCC(N)CC3)nc12 [Compound 31] | 100 to 1000 nM | < 100 nM | < 100 nM | < 100 nM | < 1000 nM | – | < 1000 nM | B (B=less than 200 fold, but greater than 20 fold) | B (B=less than 200 fold, but greater than 20 fold) | C (C=less than 20 fold) |
| Cc1ccc(CNc2nc(N3CCC(N)CC3)nc3c(C(C)C)cnn23)c(-c2cc3ccccc3[nH]2)c1 [Compound 191] | 100 to 1000 nM | 100 to 1000 nM | 100 to 1000 nM | < 100 nM | – | < 1000 nM | < 1000 nM | B (B=less than 200 fold, but greater than 20 fold) | B (B=less than 200 fold, but greater than 20 fold) | B (B=less than 200 fold, but greater than 20 fold) |
| Cc1ccc(-c2cc3ccccc3[nH]2)c(CNc2nc(N3CCC(N)CC3)nc3c(C(C)C)cnn23)c1 [Compound 190] | > 1000 nM | > 1000 nM | > 1000 nM | < 100 nM | – | 1000 to 10000 nM | 1000 to 10000 nM | A (A=greater than 200 fold) | A (A=greater than 200 fold) | B (B=less than 200 fold, but greater than 20 fold) |
| CC(C)c1cnn2c(NCc3cccc4ncn(C)c34)nc(N3CCC(N)CC3)nc12 [Compound 16] | 100 to 1000 nM | 100 to 1000 nM | < 100 nM | < 100 nM | – | – | < 1000 nM | B (B=less than 200 fold, but greater than 20 fold) | B (B=less than 200 fold, but greater than 20 fold) | C (C=less than 20 fold) |
